This note sets out measurements from PubChem BioAssay (NCI).

Molecules are shown by their SMILES.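 Step 1: Grow cells in 96-well plates. Step 2: Expose to compound for 48 hours at 5 concentrations. Step 3: Interpolate endpoints linearly; if unreached, use highest concentration. Here, GI50 denotes the concentration required for 50% inhibition of growth. Definition used: TGI = concentration required for complete inhibition of growth.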 A value given as a limit tells only on which side of the number the result lay.

Assay in all cases: NCI anticancer screen, dose series, 48 h
Assay [1] concerns SNB-19 CNS.
For assay [2], the system named is SF-539 CNS.
Assay [3] relates to SF-295 CNS.
For assay [4], the system named is MOLT-4 leukemia.
For assay [5], the system named is RXF 393 renal.
Assay [6] has as its system IGROV1 ovarian.
Assay [7] concerns CCRF-CEM leukemia.
Assay [8] has as its system OVCAR-8 ovarian.
Assay [9] concerns BT-549 breast.
In assay [10] the test system is SK-MEL-28 melanoma.

Regarding `CCCCCC(=O)O[C@]1(C(C)=O)CCC2C3CCC4=CC(=O)CC[C@]4(C)C3CC[C@@]21C` (some centres not stated), the GI50 in assay [1] was 3.27 µM; in [2], 2.94 µM; in assay [3], 2.87 µM; in assay [4], 2.21 µM; in assay [5], 1.81 µM; in assay [6], 2.7 µM. Also, the GI50 was 2.3 µM in [7], 2.61 µM in assay [8], 2.49 µM in assay [9] and 2.49 µM in assay [10]. Besides, the TGI is above 64.8 µM in [1]; 8.31 µM in [2]; 12.5 µM in assay [3]; 5.17 µM in [4]; 4.47 µM in assay [5]; 11.4 µM in assay [6]. In addition, the TGI in [7] is 5.83 µM; in assay [8] it was 10.7 µM; in [9], 4.71 µM; in assay [10] it was 6.82 µM.
In the case of `CN1CCN(c2c(F)cc(NC3=C(Cl)C(=O)c4ncccc4C3=O)cc2F)CC1`, the GI50 in assay [1] was 17.1 µM; in assay [2], 15.7 µM; in assay [3] it was 17.2 µM; in assay [4], 1.79 µM; in [5] it was 1.67 µM; in assay [6], 2.92 µM. Besides, the GI50 was 2.24 µM in assay [7], 8.82 µM in [8], 12.9 µM in assay [9] and 6.47 µM in assay [10]. The TGI was 31.1 µM in assay [1]; 29.1 µM in assay [2]; 33.5 µM in [3]; 6.71 µM in [4]; 3.31 µM in assay [5]; 11.5 µM in assay [6]. Moreover, the TGI is 22 µM in assay [7], above 100 µM in assay [8], 25.9 µM in [9] and 19 µM in [10].
As to `CCCCS(=O)c1sc2nc(-c3cccs3)cc(-c3ccccc3)c2c1N` (configuration not stated), the GI50 in assay [1] was 18.7 µM; in assay [2] it was 24.7 µM; in assay [3] it was 9.88 µM; in assay [4], 3.8 µM; in [5], 10.6 µM; in [6] it was 20.3 µM. The GI50 is 6.71 µM in assay [7], 19.9 µM in assay [8], 9.24 µM in assay [9] and 29.2 µM in [10]. Also, the TGI was above 100 µM in assay [1]; above 100 µM in assay [2]; above 100 µM in assay [3]; above 62.6 µM in assay [4]; 58 µM in [5]; above 100 µM in assay [6]. For the same compound, the TGI was above 84.8 µM in assay [7], above 100 µM in [8], 67.9 µM in [9] and above 100 µM in assay [10].
As for `COc1ccc(-c2[nH]c3ccc(OC)cc3c2C=C(C#N)C#N)cc1`, the GI50 is above 37 µM in [1]; 1.32 µM in [2]; 0.306 µM in assay [3]; 5.48 µM in assay [5]; above 24 µM in [6]; above 100 µM in [7]. Further, the GI50 is above 100 µM in [8], above 100 µM in assay [9] and 1.66 µM in assay [10]. The TGI in assay [1], in assay [2], in assay [3], in assay [4], in assay [5] and in assay [6] was above 100 µM throughout. Further, the TGI in assay [7], in assay [8], in assay [9] and in assay [10] was above 100 µM in each case.
With `C=CCN(CC=C)C(=O)c1cc(C)nc2c1c(=O)n(-c1ccccc1)c(=O)n2CCCN1CCN(c2ccccc2OC)CC1`, the GI50 in assay [1], in assay [2], in [3], in assay [4], in assay [5] and in assay [6] was above 50 µM each time. Besides, the GI50 in assay [7], in [8], in assay [9] and in [10] was above 50 µM each time. In addition, the TGI in [1], in assay [2], in [3], in assay [4], in assay [5] and in assay [6] was above 50 µM in each case. Moreover, the TGI in assay [7], in assay [8], in assay [9] and in assay [10] was above 50 µM in each case.
As to `CCCCCC/C=C\CCCCCCCCC(=O)c1cccc(OC)c1OC`, the TGI in [1] is above 100 µM; in assay [2], above 100 µM; in [3], above 100 µM; in assay [4], above 100 µM; in [5], 68.3 µM; in assay [6], above 100 µM. In addition, the TGI in [7], in assay [8], in assay [9] and in assay [10] was above 100 µM each time.
Regarding `CC(C)Cc1ccc(C(C)/C=C2\CCC(CN(C)C)C2=O)cc1` (configuration not stated), the TGI in [1] was found to be 26.3 µM; in assay [2], 30.4 µM; in assay [3], 28.6 µM; in assay [4] it was 7.91 µM; in assay [5], 35.1 µM; in assay [6], 18 µM. The TGI in assay [7] stood at 23.4 µM; in [8] it was 19 µM; in [9], 31.1 µM; in [10] it was 30.4 µM.
Regarding `CCN(CC)c1ccc2nc3ccc(=[N+](CC)CC)cc-3oc2c1`, the GI50 was 0.786 µM in [1]; 0.286 µM in assay [2]; 0.28 µM in [3]; 0.286 µM in [4]; 1.63 µM in [5]; 0.107 µM in assay [6]. For the same compound, the GI50 in [7] is 0.0973 µM; in assay [8], 0.121 µM; in [9] it was 2.32 µM; in [10], 1.5 µM. The TGI in assay [1] was above 35.3 µM; in assay [2], 18.1 µM; in [4] it was above 100 µM; in assay [5], 9.84 µM; in [6], 0.862 µM; in assay [7], above 100 µM. Moreover, the TGI in assay [9] worked out at 21 µM; in assay [10], 27.7 µM.
As for `CCO/C=C1\SC(=S)N(c2ccc(OCC)cc2)C1=O`, the TGI in assay [1], in assay [2], in assay [3], in [4], in [5] and in assay [6] was above 100 µM each time. The TGI in [7], in assay [8], in assay [9] and in [10] was above 100 µM throughout.
In the case of `Cc1noc(NC(=O)Nc2ccccc2F)c1C#N`, the TGI was above 50.3 µM in assay [1]; above 100 µM in assay [2]; above 100 µM in assay [3]; above 100 µM in [4]; above 100 µM in assay [5]; above 100 µM in [6]. In addition, the TGI in [7], in assay [8], in [9] and in assay [10] was above 100 µM each time.
As for `[O]=[V]([OH])([OH])[OH]`, the GI50 in assay [1], in [2], in assay [3], in assay [4], in assay [5] and in assay [6] was above 100 µM in each case. The GI50 in assay [7], in [8], in [9] and in assay [10] was above 100 µM each time. Also, the TGI in assay [1], in assay [2], in assay [3], in assay [4], in assay [5] and in [6] was above 100 µM each time. The TGI in [7], in assay [8], in assay [9] and in [10] was above 100 µM each time.
With `Cc1cc(Cl)nc(N(CCNc2ccnc3cc(Cl)ccc23)Cc2ccco2)n1`, the GI50 is 3.54 µM in assay [1]; 1.87 µM in [2]; 1.5 µM in assay [3]; 2.09 µM in assay [4]; 1.24 µM in [5]; 1.75 µM in assay [6]. Moreover, the GI50 is 1.92 µM in [7], 1.93 µM in assay [8], 1.66 µM in assay [9] and 1.74 µM in [10]. Besides, the TGI was 16.2 µM in assay [1]; 3.48 µM in [2]; 3.01 µM in [3]; 4.65 µM in [4]; 2.89 µM in assay [5]; 3.66 µM in [6]. For the same compound, the TGI worked out at 5.04 µM in assay [7], 4.29 µM in assay [8], 3.3 µM in assay [9] and 3.33 µM in [10].
Regarding `CC(=O)Oc1ccc(C2=Cc3ccc(OC(C)=O)cc3OC2C)cc1` (configuration not stated), the GI50 in assay [1] was 14.7 µM; in assay [2], 2.51 µM; in assay [3], 2 µM; in assay [4] it was 1.97 µM; in assay [5] it was 4.11 µM; in [6], 3.41 µM. In addition, the GI50 in assay [7] was 0.525 µM; in assay [8] it was 4.41 µM; in [9], 4.66 µM; in assay [10], 10.3 µM. Besides, the TGI in assay [1] was above 100 µM; in assay [2], 9.07 µM; in assay [3], 4.25 µM; in [4], 19.4 µM; in [5], 26.4 µM; in assay [6], 17 µM. The TGI in assay [7] was 22.5 µM; in assay [8] it was above 100 µM; in [9] it was 69.9 µM; in [10], 43.4 µM.
`Nc1nccc(-c2c(-c3ccc(F)cc3)nn3cc(C(F)(F)F)ccc23)n1`: the GI50 in assay [1], in assay [2], in assay [3], in assay [4], in assay [5] and in [6] was above 25 µM in each case. Further, the GI50 in [7], in assay [8], in assay [9] and in assay [10] was above 25 µM each time. In addition, the TGI in assay [1], in assay [2], in assay [3], in assay [4], in assay [5] and in [6] was above 25 µM each time. Further, the TGI in assay [7], in assay [8], in assay [9] and in assay [10] was above 25 µM in each case.
Take `CN(C)c1ccc(-c2cc(-c3ccc(Nc4nc(Nc5ccc(Cl)cc5)nc(Nc5ccc(Cl)cc5)n4)cc3)nc(N)c2C#N)cc1`: the GI50 was above 100 µM in assay [1]; 19.8 µM in assay [2]; 13.9 µM in assay [3]; 2.13 µM in [4]; 1.96 µM in assay [5]; 4.53 µM in [6]. Also, the GI50 in assay [7] is 2.59 µM; in [8], 6.38 µM; in assay [9], 71.2 µM; in assay [10], 2.05 µM. The TGI in [1] is above 100 µM; in [2] it was above 100 µM; in assay [3], above 100 µM; in assay [4] it was 20.5 µM; in assay [5], 6.77 µM; in [6], above 100 µM. The TGI in assay [7] is 36.5 µM; in assay [8] it was above 100 µM; in assay [9] it was above 100 µM; in assay [10], 6.35 µM.
As for `COc1ccc(/C=C2\CCC/C(=C\c3ccc(OC)c(OC)c3)C2=O)cc1OC`, the GI50 in assay [1] is 20.8 µM; in assay [2], 8.55 µM; in assay [3], 1.4 µM; in assay [4], 4.74 µM; in assay [5], 0.613 µM; in assay [6], 1.72 µM. The GI50 is 1.49 µM in [7], 1.16 µM in assay [8], 1.7 µM in assay [9] and 16.7 µM in assay [10]. Also, the TGI was above 32.5 µM in [1]; above 32.5 µM in [2]; 21.3 µM in [3]; above 32.5 µM in [4]; 3.18 µM in assay [5]; above 32.5 µM in [6]. The TGI in assay [7], in assay [8], in assay [9] and in assay [10] was above 32.5 µM each time.
